From PubChem BioAssay (NCI) come the findings set out here.

Test systems include ACHN renal; BT-549 breast; HCT-116 colon; IGROV1 ovarian; NCI-H226 lung; OVCAR-5 ovarian; OVCAR-8 ovarian; SF-268 CNS; SK-MEL-28 melanoma; U251 CNS.
What all share (experiment): inhibition of tumour cell growth, NCI panel, 48 h

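These data come from cells grown in 96-well plates and exposed to compound for 48 hours at five concentrations. TGI: concentration producing complete growth inhibition.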

As for `CC(CO)C1C[C@H](O)[C@@]2(C)CC(=O)C=C(CO)[C@@H]2C1` (stereo not given in full), the TGI in the assay with ACHN renal, with BT-549 breast, in the assay on HCT-116 colon, with IGROV1 ovarian, in the assay on NCI-H226 lung and with OVCAR-5 ovarian was more than 100 µM throughout. The TGI with OVCAR-8 ovarian, in the assay with SF-268 CNS, in the assay with SK-MEL-28 melanoma and in the assay on U251 CNS was more than 100 µM throughout.

Regarding `CCOC(=O)/C=C(/C(=O)OCC)n1cc(C)c(=O)n(Cc2cn(COCCOC(C)=O)nn2)c1=O`, the TGI is 21.6 µM in the assay on ACHN renal; 37.9 µM with BT-549 breast; more than 53.3 µM in the assay on HCT-116 colon; 32.1 µM in the assay with IGROV1 ovarian; more than 54 µM in the assay with NCI-H226 lung; 65 µM with OVCAR-5 ovarian. For the same compound, the TGI with OVCAR-8 ovarian is 32.7 µM; with SF-268 CNS it was 48.2 µM; in the assay on SK-MEL-28 melanoma, 57.1 µM; with U251 CNS it was more than 73.8 µM.

On to `Nc1ccccc1N/C=C\C(=O)C(Cl)(Cl)Cl`, for which the TGI in the assay on ACHN renal is 35.1 µM; with BT-549 breast, 58.6 µM; in the assay on HCT-116 colon it was 29.7 µM; in the assay with IGROV1 ovarian it was 40.7 µM; in the assay on NCI-H226 lung it was more than 100 µM; in the assay with OVCAR-5 ovarian, 45.6 µM. Moreover, the TGI in the assay with OVCAR-8 ovarian was more than 100 µM; with SF-268 CNS it was more than 100 µM; in the assay on SK-MEL-28 melanoma it was 42.8 µM; in the assay on U251 CNS it was 56.9 µM.

`O=C1c2c(nc3ccccc3c2-c2ccccc2)CN1Nc1ccccn1`: the TGI in the assay with ACHN renal was more than 100 µM; with BT-549 breast it was more than 100 µM; with HCT-116 colon it was more than 100 µM; with IGROV1 ovarian it was more than 100 µM; in the assay with NCI-H226 lung it was more than 89 µM; in the assay on OVCAR-5 ovarian it was more than 100 µM. The TGI was more than 87.1 µM with OVCAR-8 ovarian, more than 100 µM in the assay with SF-268 CNS, more than 100 µM in the assay with SK-MEL-28 melanoma and more than 100 µM in the assay with U251 CNS.

As to `COc1cc(/C=C2\CCC(CN(C)C)C2=O)ccc1OC(=O)c1ccccc1` (stereo not given), the TGI in the assay with ACHN renal came to 28.7 µM; with BT-549 breast, 30 µM; with HCT-116 colon, 22.1 µM; in the assay with IGROV1 ovarian, 27.9 µM; with NCI-H226 lung, 33.8 µM; in the assay on OVCAR-5 ovarian, 33.8 µM. The TGI in the assay on OVCAR-8 ovarian was found to be 22 µM; in the assay on SF-268 CNS it was 27.5 µM; with SK-MEL-28 melanoma, 29.2 µM; in the assay with U251 CNS, 29.8 µM.

Consider `NC(=O)c1ccc2c(c1)S(=O)(=O)c1ccccc1C2=O`, for which the TGI in the assay on ACHN renal, with BT-549 breast, with HCT-116 colon, in the assay on IGROV1 ovarian, in the assay on NCI-H226 lung and in the assay with OVCAR-5 ovarian was more than 100 µM throughout. Also, the TGI with OVCAR-8 ovarian, in the assay on SF-268 CNS, in the assay on SK-MEL-28 melanoma and in the assay on U251 CNS was more than 100 µM in each case.

Regarding `COC(OC)C1OC(CO)C(n2ccc(N)nc2=O)C1O` (stereo not given), the TGI with ACHN renal, in the assay on BT-549 breast, in the assay on HCT-116 colon, in the assay on IGROV1 ovarian, in the assay on NCI-H226 lung and in the assay with OVCAR-5 ovarian was more than 100 µM in each case. In addition, the TGI in the assay with OVCAR-8 ovarian, with SF-268 CNS, in the assay on SK-MEL-28 melanoma and with U251 CNS was more than 100 µM each time.

For `O=C1C=C(Br)c2c(Br)sc(Br)c21`, the TGI with ACHN renal was found to be 15.3 µM; in the assay on BT-549 breast, 17 µM; with HCT-116 colon, 30.4 µM; in the assay with IGROV1 ovarian, 16.5 µM; with NCI-H226 lung it was 98.8 µM; in the assay on OVCAR-5 ovarian it was 41.3 µM. Besides, the TGI in the assay with OVCAR-8 ovarian is 12.1 µM; in the assay with SF-268 CNS, more than 57.3 µM; with SK-MEL-28 melanoma it was more than 56.2 µM; in the assay on U251 CNS, 41.3 µM.

Take `CN(NC(=O)CCCl)C1=NCCCCN1`: the TGI in the assay with ACHN renal, in the assay with BT-549 breast, in the assay on HCT-116 colon, in the assay with IGROV1 ovarian, in the assay on NCI-H226 lung and in the assay on OVCAR-5 ovarian was more than 100 µM throughout. Further, the TGI in the assay on OVCAR-8 ovarian, in the assay on SF-268 CNS, with SK-MEL-28 melanoma and with U251 CNS was more than 100 µM in each case.

Take `O=S1(=O)c2ccccc2C(=NO)c2ccccc21`: the TGI in the assay on ACHN renal, with BT-549 breast, in the assay with HCT-116 colon, with IGROV1 ovarian, with NCI-H226 lung and in the assay on OVCAR-5 ovarian was more than 100 µM in each case. Further, the TGI with OVCAR-8 ovarian, with SF-268 CNS, in the assay with SK-MEL-28 melanoma and with U251 CNS was more than 100 µM each time.

On to `CSC1=C(C#N)C(=O)N(c2ccc(C)cc2)C(=S)C1C#N` (stereo not given), for which the TGI in the assay on ACHN renal, in the assay on BT-549 breast, in the assay on HCT-116 colon, in the assay on IGROV1 ovarian, in the assay on NCI-H226 lung and in the assay on OVCAR-5 ovarian was more than 100 µM each time. Further, the TGI in the assay with OVCAR-8 ovarian, in the assay on SF-268 CNS, in the assay on SK-MEL-28 melanoma and in the assay on U251 CNS was more than 100 µM in each case.

In the case of `COc1ccc(-c2c(N)n(-c3cccc(C(=O)O)c3)c(=O)c3cc([N+](=O)[O-])ccc23)cc1`, the TGI with ACHN renal, in the assay with BT-549 breast, with HCT-116 colon, with IGROV1 ovarian, in the assay on NCI-H226 lung and with OVCAR-5 ovarian was more than 100 µM each time. Further, the TGI in the assay with OVCAR-8 ovarian, with SF-268 CNS, with SK-MEL-28 melanoma and with U251 CNS was more than 100 µM throughout.

Turning to `Cc1ccc(N2CCc3c(C)c(C#N)c4nc5ccccc5n4c32)cc1`, the TGI in the assay with ACHN renal, with BT-549 breast, with HCT-116 colon, in the assay on IGROV1 ovarian, in the assay with NCI-H226 lung and in the assay with OVCAR-5 ovarian was more than 100 µM throughout. Further, the TGI in the assay with OVCAR-8 ovarian, with SF-268 CNS, in the assay with SK-MEL-28 melanoma and with U251 CNS was more than 100 µM throughout.
